Measurements published in patent US20240360148A1 (SUVALENT THERAPEUTICS, INC., priority 2021, published 2024).
Where two headings read alike, the source gives them in different places.

Assays:
[1] = test system: sumoylation levels (SUMO 2/3 conjugates) in HCT-116 cells; test: HCT-116 4 Hour Cell Assay (Western, SUMO 2/3 conjugates); type: cell-based; details: 4 h treatment, Anti-Sumo 2-3 immunoblot, read-out: HCT-116 Western 4 h IC50 (μM) Ave
Method in brief: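 IC50 derived from fluorescent immunoblot quantification of SUMO 2/3 conjugate bands, normalized to total protein, after non-reducing SDS-PAGE. Lysis used RIPA plus NEM; exposure was 4 h across 11 concentrations, three-fold serial dilution starting at 25 μM.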

[2] = Plasma protein binding, equilibrium dialysis, mouse plasma; type: in vitro ADME; details: 5 hours at 37° C., read-out: PPB % bound Mouse (converted)
Protocol: (§1) The compounds of interest were evaluated for various PK parameters. Specifically CACO permeability/efflux and plasma protein binding (PPP) were determined. Stock solutions were prepared at 10 mM in DMSO for test and reference compounds. Aliquots of the stock solution were diluted to 500× of final concentration (0.5 mM) with DMSO, then further diluted upon the addition of bank PE3-buffer to 20× of final concentration (20 μM). Then test and reference compounds were prepared in plasma at 1 μM. For 0 hour incubation: 25 μL of the plasma spiked with test and reference compounds was transferred into a 96-well sample preparation plate, and then 25 μL blank PB-buffer was added. The samples were quenched by 200 μL of IS solution to prepare [Initial]0h samples. For 5 hours incubation: 100 μL of the plasma spiking with test and reference compounds was loaded on donor side, and 100 μL of blank PB-buffer were loaded on receiver side of the equilibrium dialysis device. Samples were incubated in an air-bath shaker (60 rpm) for 5 hours at 37° C. After 5 hours incubation, 25 μL of samples (from both the donor sides and receiver sides of the dialysis apparatus) was aspirated and added into new sample preparation plates, separately. 25 μL of blank PB-buffer was added to donor side samples and 25 μL of blank plasma was added to receiver side samples to balance the matrix. The samples were quenched with 200 μL of IS solution. The assay plate was shaken at the vibrator (Hangzhou Allsheng, MX100-4A) for 10 min (600 rpm) and then centrifuged at 5,594×g for 15 min (Thermo Multifuge×3R). An aliquot of the 50 μL supernatant was taken from each well and diluted by 50 μL distilled water, then analyzed by UPLC-MS/MS.

SAE1 [3] = molecular target: SAE1 (Homo sapiens (Human), UniProt Q9UBE0+Q9UBT2); test: SAE High Throughput Biochemical Assay (HTRF), 15 min preincubation; details: read-out: 15 min preincubation HTRF IC50 (μM) Ave, SAE1 12.5 nM, ATP 100 μM
Sequence of SAE1 (Homo sapiens (Human), UniProt Q9UBE0+Q9UBT2) (Q9UBE0 whole entry): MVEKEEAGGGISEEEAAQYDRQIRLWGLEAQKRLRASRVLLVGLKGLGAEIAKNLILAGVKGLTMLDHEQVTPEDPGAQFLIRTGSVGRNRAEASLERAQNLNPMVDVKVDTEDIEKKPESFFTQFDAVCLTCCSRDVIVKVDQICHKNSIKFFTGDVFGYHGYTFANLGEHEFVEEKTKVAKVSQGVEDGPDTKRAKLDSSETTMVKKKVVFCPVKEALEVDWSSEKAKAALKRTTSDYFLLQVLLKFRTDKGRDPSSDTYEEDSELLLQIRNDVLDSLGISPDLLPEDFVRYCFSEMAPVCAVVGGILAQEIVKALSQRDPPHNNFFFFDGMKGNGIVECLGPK
Sequence of SAE1 (Homo sapiens (Human), UniProt Q9UBE0+Q9UBT2) (Q9UBT2 whole entry): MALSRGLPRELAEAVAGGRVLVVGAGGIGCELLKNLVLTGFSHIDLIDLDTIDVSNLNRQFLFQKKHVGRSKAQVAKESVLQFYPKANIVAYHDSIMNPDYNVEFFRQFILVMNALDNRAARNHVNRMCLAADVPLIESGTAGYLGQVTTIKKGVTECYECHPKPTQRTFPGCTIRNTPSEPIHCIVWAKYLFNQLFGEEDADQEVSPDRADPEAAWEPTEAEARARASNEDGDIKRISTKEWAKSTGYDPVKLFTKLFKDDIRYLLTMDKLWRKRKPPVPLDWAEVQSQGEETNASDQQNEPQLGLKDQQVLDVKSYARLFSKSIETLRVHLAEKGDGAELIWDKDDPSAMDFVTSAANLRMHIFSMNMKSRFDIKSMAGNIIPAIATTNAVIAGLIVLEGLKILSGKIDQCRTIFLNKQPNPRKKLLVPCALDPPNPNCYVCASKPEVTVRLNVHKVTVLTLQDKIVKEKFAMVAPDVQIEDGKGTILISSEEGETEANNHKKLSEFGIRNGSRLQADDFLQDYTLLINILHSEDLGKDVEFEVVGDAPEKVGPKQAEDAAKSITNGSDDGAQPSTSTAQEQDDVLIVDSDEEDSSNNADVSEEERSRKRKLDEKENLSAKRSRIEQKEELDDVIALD
Method in brief: (§2)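 HTRF detection of SUMO transfer from SUMO-GST to UBC9-His (40 nM each) by SAE1 at 12.5 nM used 100 μM ATP in pH 7.5 HEPES buffer with 10 mM MgCl2 and 0.1% BSA. Enzyme and compound were preincubated 15 min at RT and the reaction ran 45 min, with readings after 2 h and overnight.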

SAE1 [4] = molecular target: SAE1 (Homo sapiens (Human), UniProt Q9UBT2); test: as above; details: SAE1 12.5 nM, ATP 100 μM
Sequence of SAE1 (Homo sapiens (Human), UniProt Q9UBT2) (Q9UBE0 whole entry): as the sequence (Q9UBE0 whole entry) above
Sequence of SAE1 (Homo sapiens (Human), UniProt Q9UBT2) (Q9UBT2 whole entry): as the sequence (Q9UBT2 whole entry) above
Method in brief: as §2

[5] = Plasma protein binding, equilibrium dialysis, rat plasma; type: in vitro ADME; details: 5 hours at 37° C., read-out: PPB % bound Rat (converted)
Protocol: as §1

Caco-2 cells = test: Caco-2 permeability/efflux; type: in vitro ADME; details: 10 uM, 37° C., 90 min, pH 7.4
Protocol: (§3) Caco-2 cells were obtained from American Tissue Culture Collection (Rockville, MD). The cells were maintained in Modified Eagle's medium (MEM), containing 10% heat-inactivated fetal bovine serum (FBS), and 1% non-essential amino acids, in CO2 at 37° C. Cells were seeded on polycarbonate filter inserts (Millipore, CAT #PSHT 010 R5). The cells were cultured for 21-28 days prior to the permeability experiments. The Lucifer Yellow permeability was checked before and after the assay. Compounds were dissolved at 10 mM in 100% dimethyl sulfoxide (DMSO) and diluted for studies in Hanks Balanced Salt Solution (HBSS, Invitrogen, Cat #14025-092) with 25 mM HEPES, pH 7.4. Compounds were tested at 10 µM in both the apical-to-basolateral (A-B) and basolateral-to-apical (B-A) directions, incubations were conducted at 37° C. for 90 min. At the end of incubation, samples were diluted by assay buffer, and analyzed by LC-MS/MS. The concentrations of the compounds were quantified by standard curve. The first comparator example (Comp. Ex. 1) is the chloro substituted thienodihydropyridine

[6] = Caco-2 permeability/efflux; type: in vitro ADME; details: human, Caco-2, pH 7.4; B-A / A-B
Protocol: as §3

[7] = Plasma protein binding, equilibrium dialysis, dog plasma; type: in vitro ADME; details: 5 hours at 37° C., read-out: PPB % bound Dog (converted)
Protocol: as §1

[8] = Plasma protein binding, equilibrium dialysis, human plasma; type: in vitro ADME; details: 5 hours at 37° C., read-out: PPB % bound Human (converted)
Protocol: as §1

| Structure (SMILES) | IC50 [1] [µM] | IC50 ([1]; Homo sapiens, HCT-116, 4 h) [µM] | fraction unbound at 5 h, 1 μM [2] | IC50 (SAE1 [3]) [µM] | IC50 (SAE1 [4]) [nM] | fraction unbound at 5 h, 1 μM [5] | Caco-2 apparent permeability (Papp) (Caco-2 cells; apical-to-basolateral) | Caco-2 apparent permeability (Papp) (Caco-2 cells; basolateral-to-apical) | efflux ratio at 90 min, 10 μM [6] | fraction unbound at 5 h, 1 μM [7] | fraction unbound at 5 h, 1 μM [8] |
| --- | --- | --- | --- | --- | --- | --- | --- | --- | --- | --- | --- |
| CCn1cc(-c2c(F)cccc2[C@@H]2CN(C(=O)/C=C/CNC)Cc3sc(C#N)c(C)c32)c(C(F)(F)F)n1 [Example 217, (S, E)-4-(2-(1-ethyl-3-(trifluoromethyl)-1 H-pyrazol-4-yl)-3-fluorophenyl)-3-methyl-6-(4-(methylamino)but-2-enoyl)-4,5,6,7-tetrahydrothieno[2,3-c]pyridine-2-carbonitrile] | 0.18 | 0.101 | 0.026 | 0.13 | 150 | 0.051 | 6 10^-6 cm/s | 14 10^-6 cm/s | 2 | 0.013 | 0.028 |
| CCn1cc(-c2ccccc2[C@@H]2CN(C(=O)/C=C/CNC)Cc3sc(C#N)cc32)c(C(F)(F)F)n1 [Example 12, (S, E)-4-(2-(1-Ethyl-3-(trifluoromethyl)-1 H-pyrazol-4-yl)phenyl)-6-(4-(methylamino)but-2-enoyl)-4,5,6,7-tetrahydrothieno[2,3-c]pyridine-2-carbonitrile] | – | 0.353 | 0.035 | – | 3330 | – | 5 10^-6 cm/s | 58 10^-6 cm/s | 5 | – | 0.049 |
| CCn1cc(-c2c(F)cccc2[C@@H]2CN(C(=O)/C=C/CN(C)C)Cc3sc(C#N)cc32)c(C(F)(F)F)n1 [Example 215, (S,E)-6-(4-(dimethylamino)but-2-enoyl)-4-(2-(1-ethyl-3-(trifluoromethyl)-1 H-pyrazol-4-yl)-3-fluorophenyl)-4,5,6,7-tetrahydrothieno[2,3-c]pyridine-2-carbonitrile] | – | 0.0856 | 0.023 | 1.35 | – | – | 15 10^-6 cm/s | 20 10^-6 cm/s | 1 | 0.02 | 0.04 |
